Measured values as given in patent US20240376163A1, “PEPTIDE FOR INHIBITING CALCINEURIN AND USE THEREOF” (Seoul National University R&DB Foundation, priority 2023, published 2024).

System: Jurkat T cells
Test: mRNA sequencing of activated Jurkat T cells
Type: cell-based, human

PEITVTPPTP [CABIN1-L-1-2]
GPR108 FPKM (P+I): 37.394 FPKM
GPR183 FPKM (P+I): 4.735 FPKM
GRAP2 FPKM (P+I): 11.197 FPKM
GRK5 FPKM (P+I): 8.975 FPKM
GZMH FPKM (P+I): 13.893 FPKM
HAPLN3 FPKM (P+I): 58.345 FPKM
HDC FPKM (P+I): 23.209 FPKM
HHIP FPKM (P+I): 6.793 FPKM
HHIP-AS1 FPKM (P+I): 29.854 FPKM
HIVEP2 FPKM (P+I): 9.184 FPKM
HSP90B1 FPKM (P+I): 910.415 FPKM
HSP90B2P FPKM (P+I): 9.619 FPKM
HSPA5 FPKM (P+I): 449.173 FPKM
ICAM1 FPKM (P+I): 12.914 FPKM
ID2 FPKM (P+I): 15.335 FPKM
IER2 FPKM (P+I): 126.884 FPKM
IER3 FPKM (P+I): 26.899 FPKM
IFFO2 FPKM (P+I): 3.163 FPKM
IFIH1 FPKM (P+I): 12.37 FPKM
IFNG FPKM (P+I): 8.858 FPKM
IGLL1 FPKM (P+I): 3.244 FPKM
IGSF9B FPKM (P+I): 8.992 FPKM
IL2RA FPKM (P+I): 10.904 FPKM
IL3 FPKM (P+I): 6.298 FPKM
IL4I1 FPKM (P+I): 7.279 FPKM
IL16 FPKM (P+I): 8.304 FPKM
IL22 FPKM (P+I): 3.136 FPKM
IL23A FPKM (P+I): 17.874 FPKM
IMPA2 FPKM (P+I): 2.882 FPKM
IRF8 FPKM (P+I): 1.914 FPKM
IRF9 FPKM (P+I): 39.375 FPKM
ISM1 FPKM (P+I): 3.737 FPKM
JAK3 FPKM (P+I): 8.871 FPKM
JUN FPKM (P+I): 3.58 FPKM
JUNB FPKM (P+I): 56.126 FPKM
KBTBD11 FPKM (P+I): 2.772 FPKM
KCNK5 FPKM (P+I): 4.904 FPKM
KCTD11 FPKM (P+I): 2.303 FPKM
KIAA0922 FPKM (P+I): 12.911 FPKM
KIF1B FPKM (P+I): 13.254 FPKM
KIF3B FPKM (P+I): 14.583 FPKM
KLF2 FPKM (P+I): 1.375 FPKM
KSR1 FPKM (P+I): 5.998 FPKM
LAIR2 FPKM (P+I): 3.695 FPKM
LAMP3 FPKM (P+I): 9.828 FPKM
LAX1 FPKM (P+I): 7.578 FPKM
LDLRAP1 FPKM (P+I): 0.878 FPKM
LIME1 FPKM (P+I): 11.879 FPKM
LINC00152 FPKM (P+I): 31.801 FPKM
LINC00426 FPKM (P+I): 0.675 FPKM
LINC00528 FPKM (P+I): 5.927 FPKM
LINC00539 FPKM (P+I): 2.351 FPKM
LINC00977 FPKM (P+I): 0.266 FPKM
LOC729603 FPKM (P+I): 3.329 FPKM
LRRC8B FPKM (P+I): 4.298 FPKM
LRRC45 FPKM (P+I): 4.264 FPKM
LYPD3 FPKM (P+I): 2.662 FPKM
MAP2K3 FPKM (P+I): 43.237 FPKM
MAP2K6 FPKM (P+I): 0.955 FPKM
MBOAT2 FPKM (P+I): 3.202 FPKM
MCM4 FPKM (P+I): 27.291 FPKM
MCM5 FPKM (P+I): 33.895 FPKM
METRNL FPKM (P+I): 7.881 FPKM
MIR221 FPKM (P+I): 10.092 FPKM
MIR4435-1HG FPKM (P+I): 16.303 FPKM
MIR6891 FPKM (P+I): 31.815 FPKM
MMP10 FPKM (P+I): 22.372 FPKM
MRPL39 FPKM (P+I): 188.834 FPKM
MYO1D FPKM (P+I): 5.995 FPKM
MYO1G FPKM (P+I): 65.452 FPKM
MYO7B FPKM (P+I): 12.661 FPKM
NAMPT FPKM (P+I): 54.272 FPKM
NDFIP1 FPKM (P+I): 24.432 FPKM
NDFIP2 FPKM (P+I): 12.598 FPKM
NDST3 FPKM (P+I): 5.621 FPKM
NEIL3 FPKM (P+I): 8.336 FPKM
NEXN FPKM (P+I): 5.587 FPKM
NFE2L3 FPKM (P+I): 28.495 FPKM
NFKBIA FPKM (P+I): 70.837 FPKM
NFKBID FPKM (P+I): 8.294 FPKM
NFKBIE FPKM (P+I): 11.793 FPKM
NINJ1 FPKM (P+I): 54.452 FPKM
NKD2 FPKM (P+I): 3.105 FPKM
NKX3-1 FPKM (P+I): 8.412 FPKM
NLRC5 FPKM (P+I): 37.7 FPKM
NPY FPKM (P+I): 4.799 FPKM
NR4A1 FPKM (P+I): 34.85 FPKM
NR4A2 FPKM (P+I): 0.356 FPKM
NRROS FPKM (P+I): 26.059 FPKM
NT5M FPKM (P+I): 1.643 FPKM
NXN FPKM (P+I): 1.571 FPKM
OAS3 FPKM (P+I): 18.24 FPKM
OSBPL3 FPKM (P+I): 23.298 FPKM
PARP9 FPKM (P+I): 84.386 FPKM
PARP14 FPKM (P+I): 72.911 FPKM
PCBP3 FPKM (P+I): 4.642 FPKM
PDE3B FPKM (P+I): 5.194 FPKM
PEAK1 FPKM (P+I): 9.633 FPKM
PELI1 FPKM (P+I): 8.465 FPKM
PHEX FPKM (P+I): 0.786 FPKM
PHF7 FPKM (P+I): 3.075 FPKM
PHLDA1 FPKM (P+I): 52.893 FPKM
PIDD1 FPKM (P+I): 4.471 FPKM
PIM3 FPKM (P+I): 72.895 FPKM
PKIA FPKM (P+I): 18.138 FPKM
PLAU FPKM (P+I): 82.517 FPKM
PLEKHO1 FPKM (P+I): 36.376 FPKM
PLK3 FPKM (P+I): 7.036 FPKM
PMAIP1 FPKM (P+I): 37.469 FPKM
PMEPA1 FPKM (P+I): 2.393 FPKM
PODXL FPKM (P+I): 1.509 FPKM
POU3F2 FPKM (P+I): 0.696 FPKM
PPFIBP1 FPKM (P+I): 12.117 FPKM
PPM1H FPKM (P+I): 4.178 FPKM
PRKCA FPKM (P+I): 11.132 FPKM
PTK2 FPKM (P+I): 13.391 FPKM
PTPN22 FPKM (P+I): 5.119 FPKM
PTPRE FPKM (P+I): 14.28 FPKM
PWWP2B FPKM (P+I): 3.446 FPKM
PXMP2 FPKM (P+I): 7.334 FPKM
RAG1 FPKM (P+I): 0.265 FPKM
RAG2 FPKM (P+I): 0.385 FPKM
RAP1GAP2 FPKM (P+I): 0.285 FPKM
RAP1GAP FPKM (P+I): 1.799 FPKM
RDH10 FPKM (P+I): 5.524 FPKM
REL FPKM (P+I): 5.699 FPKM
RELB FPKM (P+I): 40.689 FPKM
RGS3 FPKM (P+I): 2.303 FPKM
RGS16 FPKM (P+I): 5.595 FPKM
RMI1 FPKM (P+I): 8.198 FPKM
RORB FPKM (P+I): 3.292 FPKM
S1PR1 FPKM (P+I): 0.461 FPKM
SAMD1 FPKM (P+I): 12.809 FPKM
SECISBP2L FPKM (P+I): 12.883 FPKM
SELPLG FPKM (P+I): 3.724 FPKM
SEMA7A FPKM (P+I): 34.623 FPKM
SERPINB2 FPKM (P+I): 14.103 FPKM
SERPINE1 FPKM (P+I): 4.431 FPKM
SH2B3 FPKM (P+I): 14.803 FPKM
SH2D5 FPKM (P+I): 3.557 FPKM
SH3BGRL3 FPKM (P+I): 351.357 FPKM
SH3RF2 FPKM (P+I): 32.15 FPKM
SHC4 FPKM (P+I): 0.686 FPKM
SIT1 FPKM (P+I): 34.287 FPKM
SIX6 FPKM (P+I): 19.444 FPKM
SLC2A3 FPKM (P+I): 40.147 FPKM
SLC2A4RG FPKM (P+I): 2.168 FPKM
SLC7A5 FPKM (P+I): 226.44 FPKM
SLC25A45 FPKM (P+I): 2.626 FPKM
SLCO3A1 FPKM (P+I): 3.095 FPKM
SLIT1 FPKM (P+I): 2.815 FPKM
SMIM14 FPKM (P+I): 3.572 FPKM
SOCS1 FPKM (P+I): 11.547 FPKM
SOCS3 FPKM (P+I): 9.392 FPKM
SOSTDC1 FPKM (P+I): 7.34 FPKM
SPRY2 FPKM (P+I): 17.876 FPKM
SREBF1 FPKM (P+I): 12.747 FPKM
ST3GAL6-AS1 FPKM (P+I): 8.479 FPKM
ST8SIA4 FPKM (P+I): 8.921 FPKM
STARD4 FPKM (P+I): 16.105 FPKM
STAT1 FPKM (P+I): 527.58 FPKM
STAT5A FPKM (P+I): 3.055 FPKM
STX11 FPKM (P+I): 2.972 FPKM
SYTL1 FPKM (P+I): 12.555 FPKM
TBC1D10C FPKM (P+I): 15.764 FPKM
TBC1D20 FPKM (P+I): 18.427 FPKM
TBX21 FPKM (P+I): 39.746 FPKM
THY1 FPKM (P+I): 3.297 FPKM
TIMP2 FPKM (P+I): 1.952 FPKM
TM4SF1 FPKM (P+I): 0.907 FPKM
TM7SF3 FPKM (P+I): 25.052 FPKM
TMEM229B FPKM (P+I): 7.747 FPKM
TMTC4 FPKM (P+I): 3.005 FPKM
TNFRSF4 FPKM (P+I): 11.916 FPKM
TNFRSF12A FPKM (P+I): 6.523 FPKM
TNFRSF14 FPKM (P+I): 12.09 FPKM
TNFSF9 FPKM (P+I): 2.651 FPKM
TNRC6C FPKM (P+I): 4.485 FPKM
TNS3 FPKM (P+I): 1.418 FPKM
TRAF1 FPKM (P+I): 24.962 FPKM
TRAT1 FPKM (P+I): 5.507 FPKM
TRIM22 FPKM (P+I): 3.316 FPKM
TSHR FPKM (P+I): 1.574 FPKM
TSPAN2 FPKM (P+I): 2.119 FPKM
TSPAN7 FPKM (P+I): 42.604 FPKM
TTC28 FPKM (P+I): 1.926 FPKM
TUBB2A FPKM (P+I): 10.912 FPKM
TUBB3 FPKM (P+I): 5.423 FPKM
UHRF1BP1L FPKM (P+I): 7.889 FPKM
USP30-AS1 FPKM (P+I): 9.017 FPKM
VANGL1 FPKM (P+I): 8.842 FPKM
VASH2 FPKM (P+I): 4.245 FPKM
VGF FPKM (P+I): 54.294 FPKM
XAF1 FPKM (P+I): 16.914 FPKM
XBP1 FPKM (P+I): 48.525 FPKM
XYLB FPKM (P+I): 2.311 FPKM
YBX2 FPKM (P+I): 1.594 FPKM
ZC3H12A FPKM (P+I): 17.547 FPKM
CD27 and CD70 expression (upon T-cell activation): inhibited CD27 and CD70
RNA levels of representative T-cell activation markers (IL2, IL3, NFATC1, CCL4, CCL20, CXCL8) (upon T-cell activation): reduced RNA levels of representative T-cell activation markers
